# According to PMC8286840, “Identifying SARS-CoV-2 antiviral compounds by screening for small molecule inhibitors of Nsp3 papain-like protease” (Biochemical Journal, 2021):
# Counter-ions that a name gives are not always drawn. Like-named read-outs stand apart in the source and are kept apart here.
# Key:
# [1] = molecular target: T1, SARS-CoV-2 PLpro (nsp3 1564–1878) (Severe acute respiratory syndrome coronavirus 2, UniProt P0DTD1); experiment: biochemical; design: FRET-quenched peptide (Pro3) cleavage by PLpro, 10 min pre-incubation, slope over 20 min, normalised to no-compound control; conditions: read-out: % of control remaining
# [2] = molecular target: T1, SARS-CoV-2 PLpro (nsp3 1564–1878); experiment: biochemical; design: FRET-quenched peptide (Pro3) cleavage by PLpro, 10 min pre-incubation, slope over 20 min, normalised to no-compound control; conditions: read-out: % of control remaining; remark: listed apart in the source
smiles,measurement,setting,value
O=C(O)CCCN1CCC(O[C@@H](c2ccc(Cl)cc2)c2ccccn2)CC1 [Bepotastine (Beslilate)],remaining activity at 1.25 µM,"[1]; Well no.=6333, low concentration screen",97.3%
same,remaining activity at 3.75 µM,"[2]; Well no.=6333, high concentration screen",93.3%
O=C(O)CCCc1ccc(N(CCCl)CCCl)cc1 [Chlorambucil],remaining activity at 1.25 µM,"[1]; Well no.=327, low concentration screen",96.4%
same,remaining activity at 1.25 µM,"[1]; Well no.=2227, low concentration screen",99.2%
same,remaining activity at 3.75 µM,"[2]; Well no.=327, high concentration screen",98.4%
same,remaining activity at 3.75 µM,"[2]; Well no.=2227, high concentration screen",98.3%
COc1ccc(CNC(=O)c2cc(-c3cncc(C)c3)ncc2-c2nccs2)nc1OC [MK-3697],remaining activity at 1.25 µM,"[1]; Well no.=7867, low concentration screen",107%
same,remaining activity at 3.75 µM,"[2]; Well no.=7867, high concentration screen",95.1%
CCCCCCCN(CC)CCCC(O)c1ccc(NS(C)(=O)=O)cc1 (stereo not drawn) [Ibutilide fumarate],remaining activity at 1.25 µM,"[1]; Well no.=5096, low concentration screen",93.1%
same,remaining activity at 3.75 µM,"[2]; Well no.=5096, high concentration screen",102%
CCCN[C@@H]1CCc2nc(N)sc2C1 [Dexpramipexole (dihydrochloride)],remaining activity at 1.25 µM,"[1]; Well no.=7181, low concentration screen",98.2%
same,remaining activity at 3.75 µM,"[2]; Well no.=7181, high concentration screen",93.6%
CC1(C)CC[C@]2(C(=O)O)CC[C@]3(C)C(=CC[C@@H]4[C@@]5(C)CC[C@H](O)C(C)(C)[C@@H]5CC[C@]43C)[C@@H]2C1 [Oleanolic acid],remaining activity at 1.25 µM,"[1]; Well no.=3448, low concentration screen",96.1%
same,remaining activity at 1.25 µM,"[1]; Well no.=6443, low concentration screen",95.4%
same,remaining activity at 3.75 µM,"[2]; Well no.=3448, high concentration screen",91.6%
same,remaining activity at 3.75 µM,"[2]; Well no.=6443, high concentration screen",96.8%
CCCCCCCCCCCCC(=O)O [Tridecanoic acid],remaining activity at 1.25 µM,"[1]; Well no.=4260, low concentration screen",106%
same,remaining activity at 3.75 µM,"[2]; Well no.=4260, high concentration screen",98%
Cc1cc(C)c(NC(=O)C[C@H](CC(=O)O)c2cccc3ccccc23)c(C(=O)N2CCC3(CCCC3)CC2)c1 [CR 2945],remaining activity at 1.25 µM,"[1]; Well no.=1111, low concentration screen",105%
same,remaining activity at 3.75 µM,"[2]; Well no.=1111, high concentration screen",98.1%
CNc1ncnc2c1ncn2[C@H]1C[C@H](OP(=O)(O)O)[C@@H](COP(=O)(O)O)O1 [MRS 2179],remaining activity at 1.25 µM,"[1]; Well no.=926, low concentration screen",98.6%
same,remaining activity at 3.75 µM,"[2]; Well no.=926, high concentration screen",103%
CCCCN1CCCCC1C(=O)Nc1c(C)cccc1C (stereo not drawn) [Bupivacaine],remaining activity at 1.25 µM,"[1]; Well no.=2052, low concentration screen",105%
same,remaining activity at 3.75 µM,"[2]; Well no.=2052, high concentration screen",103%
COC[C@H]1OC(=O)c2coc3c2[C@@]1(C)C1=C(C3=O)[C@@H]2CCC(=O)[C@@]2(C)C[C@H]1OC(C)=O [Wortmannin],remaining activity at 1.25 µM,"[1]; Well no.=3232, low concentration screen",99.9%
same,remaining activity at 3.75 µM,"[2]; Well no.=3232, high concentration screen",102%
CC(C)=CCC/C(C)=C/CC/C(C)=C/CSc1ccccc1C(=O)O [Salirasib],remaining activity at 1.25 µM,"[1]; Well no.=6668, low concentration screen",104%
same,remaining activity at 3.75 µM,"[2]; Well no.=6668, high concentration screen",105%
O=C(CO)[C@@H](O[C@H]1O[C@H](CO)[C@@H](O)[C@H](O)[C@H]1O)[C@H](O)[C@H](O)CO [Turanose],remaining activity at 1.25 µM,"[1]; Well no.=6971, low concentration screen",92.9%
same,remaining activity at 3.75 µM,"[2]; Well no.=6971, high concentration screen",98.6%
COc1ccc(-c2oc3c(CC=C(C)C)c(O)cc(O)c3c(=O)c2O[C@@H]2O[C@@H](C)[C@H](O)[C@@H](O)[C@H]2O)cc1 [Baohuoside I],remaining activity at 1.25 µM,"[1]; Well no.=6684, low concentration screen",108%
same,remaining activity at 1.25 µM,"[1]; Well no.=7047, low concentration screen",101%
same,remaining activity at 3.75 µM,"[2]; Well no.=6684, high concentration screen",102%
same,remaining activity at 3.75 µM,"[2]; Well no.=7047, high concentration screen",96.4%
same,remaining activity at 3.75 µM,"[2]; Well no.=8129, high concentration screen",99.8%
CC(CC(=O)O)C(=O)O (stereo not drawn) [2-Methylsuccinic acid],remaining activity at 1.25 µM,"[1]; Well no.=6635, low concentration screen",100%
same,remaining activity at 3.75 µM,"[2]; Well no.=6635, high concentration screen",98.3%
CN1CCN(C2=Nc3cc(Cl)ccc3Nc3ccccc32)CC1 [Clozapine],remaining activity at 1.25 µM,"[1]; Well no.=182, low concentration screen",99.6%
same,remaining activity at 1.25 µM,"[1]; Well no.=1813, low concentration screen",98.4%
same,remaining activity at 1.25 µM,"[1]; Well no.=6569, low concentration screen",98.5%
same,remaining activity at 3.75 µM,"[2]; Well no.=182, high concentration screen",96.2%
same,remaining activity at 3.75 µM,"[2]; Well no.=1813, high concentration screen",95.3%
same,remaining activity at 3.75 µM,"[2]; Well no.=6569, high concentration screen",97.3%
CN1C[C@H](O)[C@@H](O)[C@H](O)[C@H]1CO [N-Methyl-1-deoxynojirimycin],remaining activity at 1.25 µM,"[1]; Well no.=1016, low concentration screen",99.2%
same,remaining activity at 3.75 µM,"[2]; Well no.=1016, high concentration screen",98.3%
CCCCCCCC/C=C\CCCCCCCCCCC(=O)O [12(Z) Heneicosenoic acid],remaining activity at 1.25 µM,"[1]; Well no.=4452, low concentration screen",94%
same,remaining activity at 3.75 µM,"[2]; Well no.=4452, high concentration screen",102%
"CC1CNc2c(cccc2S(=O)(=O)N[C@@H](CCCNC(=N)N)C(=O)N2CC[C@@H](C)C[C@@H]2C(=O)O)C1 (stereo partly drawn) [(2R,4R)-1-((2S)-5-{[amino(imino)methyl]amino}-2-{[(3-methyl-1,2,3,4-tetrahydro-8-quinolinyl)sulfonyl]amino}pentanoyl)-4-methyl-2-piperidinecarboxylic acid hydrate]",remaining activity at 1.25 µM,"[1]; Well no.=5613, low concentration screen",96%
same,remaining activity at 3.75 µM,"[2]; Well no.=5613, high concentration screen",96.5%
O=C(O)[C@@H](O)Cc1ccccc1 [(S)-2-Hydroxy-3-phenylpropanoic acid],remaining activity at 1.25 µM,"[1]; Well no.=7173, low concentration screen",96.3%
same,remaining activity at 3.75 µM,"[2]; Well no.=7173, high concentration screen",88.8%
C[C@@H](Oc1cc(-c2cnn(C3CCNCC3)c2)cnc1N)c1c(Cl)ccc(F)c1Cl [Crizotinib],remaining activity at 1.25 µM,"[1]; Well no.=5612, low concentration screen",99.8%
same,remaining activity at 3.75 µM,"[2]; Well no.=5612, high concentration screen",101%
NC1CCN(c2cccc(Cl)n2)CC1 [SR 57227A],remaining activity at 1.25 µM,"[1]; Well no.=1262, low concentration screen",103%
same,remaining activity at 3.75 µM,"[2]; Well no.=1262, high concentration screen",102%
NC(=S)NN=Cc1ncccc1N [3-amino-2-pyridinecarbaldehyde thiosemicarbazone],remaining activity at 1.25 µM,"[1]; Well no.=5964, low concentration screen",98.3%
same,remaining activity at 3.75 µM,"[2]; Well no.=5964, high concentration screen",97.9%
COc1ccc2c3c4n(c2c1)[C@H](C=C(C)C)OOC(C)(C)C[C@@H]4N1C(=O)[C@@H]2CCCN2C(=O)[C@]1(O)[C@H]3O [Verruculogen],remaining activity at 1.25 µM,"[1]; Well no.=3556, low concentration screen",98.3%
same,remaining activity at 3.75 µM,"[2]; Well no.=3556, high concentration screen",102%
COc1cc(Nc2c(C#N)cnc3cc(OCCCN4CCN(C)CC4)c(OC)cc23)c(Cl)cc1Cl [Bosutinib],remaining activity at 1.25 µM,"[1]; Well no.=2883, low concentration screen",97.8%
same,remaining activity at 3.75 µM,"[2]; Well no.=2883, high concentration screen",100%
Cc1ccccc1CN1C(=O)C2=C(CCN(Cc3ccccc3)C2)N2CCN=C12 [TIC10],remaining activity at 1.25 µM,[1],97.7%
same,remaining activity at 3.75 µM,[2],96.2%
O=c1c(O)c(-c2ccc(O)c(O)c2)oc2cc(O)cc(O)c12 [Quercetin],remaining activity at 1.25 µM,"[1]; Well no.=5716, low concentration screen",91.5%
same,remaining activity at 3.75 µM,"[2]; Well no.=5716, high concentration screen",96%
NC(N)=NCCNS(=O)(=O)c1cccc2cnccc12 [HA-1004 hydrochloride],remaining activity at 1.25 µM,"[1]; Well no.=522, low concentration screen",101%
same,remaining activity at 3.75 µM,"[2]; Well no.=522, high concentration screen",99.3%
c1cnc(NCc2ccc(CNc3ncccn3)cc2)nc1 [MSX-122],remaining activity at 1.25 µM,"[1]; Well no.=8075, low concentration screen",97%
same,remaining activity at 1.25 µM,"[1]; Well no.=8397, low concentration screen",89.1%
same,remaining activity at 3.75 µM,"[2]; Well no.=8075, high concentration screen",84.8%
same,remaining activity at 3.75 µM,"[2]; Well no.=8397, high concentration screen",90.4%
"COc1cc2c(cc1-c1c(C)noc1C)ncc1[nH]c(=O)n([C@H](C)c3ccccn3)c12 [7-(3,5-dimethyl-4-isoxazolyl)-8-methoxy-1-[(1R)-1-(2-pyridinyl)ethyl]-1,3-dihydro-2H-imidazo[4,5-c]quinolin-2-one]",remaining activity at 1.25 µM,"[1]; Well no.=5813, low concentration screen",101%
same,remaining activity at 3.75 µM,"[2]; Well no.=5813, high concentration screen",102%
CCN(CC)Cc1ccc(C(=O)N(CCc2ccccc2OC)[C@@H]2CCNC2)cc1 [4-[(diethylamino)methyl]-N-[2-(2-methoxyphenyl)ethyl]-N-[(3R)-3-pyrrolidinyl]benzamide dihydrochloride],remaining activity at 1.25 µM,"[1]; Well no.=5467, low concentration screen",107%
same,remaining activity at 3.75 µM,"[2]; Well no.=5467, high concentration screen",109%
